Results taken from a melting point compilation (Tetko et al.; mined from patent text by program, amines drawn as free bases though some values may be those of a salt).

| SMILES | melting point [°C] |
| --- | --- |
| O=[N+]([O-])c1ccc(C(F)(F)F)c(Nc2nc3ccccc3o2)c1 | 150 to 152 |
| CCc1cnc2c(NC(=O)c3c(Cl)cccc3Cl)cccc2c1CC(C)(C)O | 203 to 204 |
| CN(C)C=CC(=O)CC(C)(C)C | 72 to 74 |
| Cc1cc(F)c([N+](=O)[O-])cc1[N+](=O)[O-] | 76 |
| CC1(C)OC(=S)Nc2ccc(-c3ccc(F)cc3)cc21 | 221 to 223 |
| CC(=O)CN1CCc2c(c(=O)oc3ccccc23)C1 | 128 to 130 |
| Cc1nc(-c2ccc3c(c2)CCCC3)c(Br)o1 | 97 to 98 |
| FC(F)(F)c1cccc(-c2ccn3ncnc3n2)c1 | 201 to 202 |
| O=Cc1c[nH]c2c1ccc1c3cc([N+](=O)[O-])ccc3[nH]c12 | > 250 |
| CC(=O)SCC(Cc1ccccc1)C(=O)Nc1cc(C(=O)O)ccc1C (stereo not given) | 214 to 216 |
| CN1Sc2cc3c(cc2CC1=O)CCCC3 | 202 to 203 |
| CCOC(=O)c1cn(-c2ccc([N+](=O)[O-])cn2)nc1SCc1ccccc1 | 164 to 166 |
| O=Cc1ccc(-c2ccc3ncnc(Nc4ccc(OCc5cccc(F)c5)c(Cl)c4)c3c2)cc1 | 237 to 238 |
| CCCCCC(O)C1C(=O)NC(C(=O)SCCNC(C)=O)(C(O)C2C=CCCC2)C1(C)O (stereo not given) | 80 |
| CC(C)OC(=O)Nc1cccc(-c2ccnc3c(C(=O)c4ccccc4)cnn23)c1 | 116 to 118 |
| CCOC(=O)c1cnc(Cc2ccc(OC)c(OC)c2)c2cc(OC)c(OC)cc12 | 117 to 119 |
| CN1CCC(c2c[nH]c3ccc(/C=C/C(N)=O)cc23)CC1 | 82 to 83.5 |
| COc1cc(O)c(N2CCN(CCN3CC(C)(C)C3)C2=O)cc1Cl | 138 |
| CC(C)(C)OC(=O)N[C@H](CC(=O)OCc1ccccc1)C(=O)N[C@H](CO)C(C)(C)C | 186 to 187 |
| CC(=O)OCc1c(Br)cccc1N1Cc2cc(C(C)(C)C)sc2C1=O | 172 to 173 |
| CC1(C)C2CC[C@]1(C)C(=O)C(C(=O)Nc1ccc(Cl)c(C(F)(F)F)c1)C2=O (stereo not given in full) | 118 to 120 |
| CCOC(=O)/C=C(C)/C(F)=C/C=C(\C)C=O | 70 to 74 |
| O=C1CC=C2CCC(=O)N12 | 155 to 156 |

| SMILES | melting point [°C] |
| --- | --- |
| CCc1ccnc(C(=O)c2[nH]c3cc(Cl)ccc3c2CC(=O)O)c1F | 193 to 194 |
| Cc1ccc(S(=O)(=O)N2CCC[C@H]2C(=O)N2c3ccc(F)c(Cl)c3C(=O)CC2C)cc1 (stereo not given in full) | 135 to 136 |
| O=C1CC(c2cccnc2)=NN1c1ccc(O)cc1 | > 250 |
| CCOC(=O)Nc1ccc(N2CCN([C@H](C)[C@](O)(Cn3cncn3)c3ccc(F)cc3F)CC2)cc1 | 90 to 92 |
| Cc1c(C(F)(F)F)cnn(-c2cc(OCC=O)c(Cl)cc2F)c1=O | 107 |
| CCn1c(=O)c2[nH]c(/C=C/c3cc(C)c(OC)cc3C)nc2n(CC)c1=O | > 280 |
| CCCc1c(OCCCS(=O)(=O)c2ccc(C(=O)NCC(=O)OCC)cc2)ccc(C(C)=O)c1O | 138 to 140 |
| Cc1c(C(=O)C2CSC(c3cccnc3)N2)c2ccccc2n1C(=O)N(C)C (stereo not given) | 130 to 132 |
| CC(C)(C)OC(=O)N1C(=O)[C@H](O)[C@@H]1CC1CCCCC1 | 105 to 106 |
| CCCCCN1Cc2cccc(S(=O)(=O)NC(=O)Nc3nc(OC)cc(OC)n3)c2S1(=O)=O | 197 to 203 |
| CC(=O)C(Cl)=CSC(C)(C)C | 73 |
| CC(S(N)(=O)=O)S(=O)(=O)N1CCCC1 (stereo not given) | 78 to 80 |
| COC(=O)CCCCSCCCCCCCCCCCOS(=O)(=O)c1ccc(C)cc1 | 54 |
| CC1CC2C3CCC4=CC(=O)C=CC4(C)C3=CCC2(C)C1C(=O)CN1CCN(c2cc(NC34CC5CC(CC(C5)C3)C4)nc(NC34CC5CC(CC(C5)C3)C4)n2)CC1 (stereo not given) | 210 to 220 |
| CN(CCOc1ccc(CC(Cl)C(N)=O)cc1)c1nc2ccccc2o1 (stereo not given) | 149 to 151 |
| COc1cc2c(Nc3ccc(Cl)cc3F)ncnc2cc1OCCNC1CCCC1 | 171 to 173 |
| Cc1c(-c2cncn2C)[nH]c(=O)c2c1ccc1nc(Nc3c(Cl)cccc3Cl)n(C)c12 | > 300 |
| CCSC(=N)Nc1ccc(CCN(C)Cc2ccccc2)cc1 | 136 to 137 |
| CCOC(=O)C(N)c1c[nH]c2c(CC)cccc12 (stereo not given) | 120 to 122 |
| CC1=CCC2C(=O)N(c3ccccc3)C(=O)C2C1 (stereo not given) | 92 to 93 |
| C[C@H](Cn1ncnn1)n1cnc2cc3c(=O)n([C@H](C)Cn4cnnn4)nnc3cc2c1=O | 168 to 170 |
| CC(C)c1cccc(C(C)C)c1NC(=O)CNC(c1ccccc1)c1ccc([N+](=O)[O-])cc1 (stereo not given) | 177 to 179 |
| CCCCc1c(C(=O)O)ccc2c(OC)cccc12 | 154 to 155 |

The next lines start with the values.

| melting point [°C] | SMILES |
| --- | --- |
| 188 to 192 | CCc1cnc(N2CCC(c3nc4cc(-c5ccc(-n6cnnn6)cc5F)ccc4o3)CC2)nc1 |
| 260 to 262 | N#Cc1cnc2c(sc3ccccc32)c1Nc1ccc(Cl)cc1Cl |
| 70 to 71 | CNc1nc(Nc2ccc(CCNC(=O)OC(C)(C)C)cc2)ncc1[N+](=O)[O-] |
| 56 to 58 | N#CCCc1coc2ccc(Br)cc12 |
| 93 to 94 | OCc1nn(-c2cccc(C(F)(F)F)c2)c2c1CCCC2 |
| 65 to 66 | CCOC(=O)c1ccc(N(Cc2ccc(Cl)cc2)C(C)=O)cc1 |
| 144 | CS(=O)(=O)c1ccc(-c2cc(Cl)c(Cl)cc2-c2ccc(F)cc2)cc1 |
| 83.5 to 85 | CCOC(=O)C=C(C)NC(=O)OCc1ccc(Cl)c(Cl)c1 |
| 188 to 190 | Cn1ncc(NCCN2CCN(c3cccc4c3OCCO4)CC2)cc1=O |
| 216 to 218 | O=C(Nc1ccc(Cc2ccc(O)c(O)c2)cc1)C1CSc2ccccc2C1=O (stereo not given) |
| 103 | Cc1oc2ccccc2c1C(=O)c1ccc(Cl)c(N)c1 |
| 82 to 84 | CCOC(=O)C(CC)n1c(NC(=O)c2cccs2)nc2cc(C(=O)N(C)C3CCCCC3)ccc21 (stereo not given) |
| 111 to 116 | Brc1ccc2c3c(cccc13)C(NCCCCCCCCCCCCn1ccnc1)=N2 |
| 184 to 185 | CC1CNc2c(C#N)cnn2C1c1cc(Cl)ccc1Cl (stereo not given) |
| 185 to 188 | CC(C)(C)C(=O)Oc1ccc(N=Nc2ccc(OC(=O)C(C)(C)C)cc2)cc1 |
| 74 to 75 | Oc1cccc(CCCn2ccnn2)c1 |
| 76 to 78 | N#CCSC(=O)c1ccco1 |
| 277 to 279 | O=C(O)c1cc(F)c2cccnc2c1O |
| 106 to 107 | C=CCOc1ccc(COc2ccc(CC(=O)O)cc2Cl)cc1 |
| 134 to 138 | COCCOc1ccccc1S(=O)(=O)NC(=O)Nc1nc(C)nc(OC)n1 |
| 116 to 117 | CNC(=S)C1(c2ccc(Cl)c(Cl)c2)CCCCS1 (stereo not given) |
| 211 to 213 | O=C(Nc1ccc(Oc2ccccc2)cc1)Nc1ccc(C(F)(F)F)cc1 |
| 131 to 132 | CCCC(=O)N(Cc1ccc(-c2ccccc2-c2nc(=O)s[nH]2)cc1)c1sc(C)cc1C(=O)OC |
| 264 to 267 | CN(C)C(=O)c1cc(-c2ccccc2)c(=O)[nH]c1-c1c(Cl)cccc1C#N |
| 200 to 204 | c1cnc2scc(Nc3ccncc3)c2c1 |
| 207 to 209 | O=C(Nc1ccc(NS(=O)(=O)c2ccc(Cl)c(Cl)c2)cc1)Nc1ccc([N+](=O)[O-])cc1 |
| 212 to 214 | CCCN=C(N)Nc1ccnc(CCCCC(N)=O)n1 |

| melting point [°C] | SMILES |
| --- | --- |
| 156 | CCCOc1n[nH]c(=O)[nH]1 |
| 121 to 123 | COC1=CC(Cl)(OC)NC(C(O)CC(=O)Nc2ccccc2)=N1 (stereo not given) |
| 150 to 151 | O=C(O)C1=NC(c2ccc(Cl)cc2Cl)N(c2ccc(Cl)cc2)C1 (stereo not given) |
| 211 to 213 | O=C(CC12CC3CC(CC(C3)C1)C2)Nc1cccc2[nH]ccc12 |
| 76 | CCON=C(CC)C1=C(O)CC(c2cccc3sccc23)CC1=O (stereo not given) |
| 202 to 203 | O=C1N=c2ccc(OCCN3CC=C(Cc4ccccc4)CC3)cc2=N1 |
| 152 to 154 | CCCC12CCC(=O)C=C1c1c(cc(OCC3=NCCN3)c(Cl)c1Cl)C2 (stereo not given) |
| 226 | O=C1CCCc2c1[nH]c1ccc(Cl)cc21 |
| 185 to 187 | Cc1cccc(Nc2ncnc3cnc(NC4CCN(C(=O)N(C)C)CC4)nc23)c1 |
| 137 to 138 | CCCCCCCCC(SCCCCCC)C(=O)Nc1c(SC)ccc2ncc(C)cc12 (stereo not given) |
| 197 to 199 | CC[C@H](C)[C@@H](CO)NC(=O)[C@H](Cc1c[nH]cn1)NC(=O)[C@H](Cc1cccc2ccccc12)NC(=O)OCc1ccccc1 |
| 97 to 99 | NS(=O)(=O)c1ccc(CCC(=O)O)cc1 |
| > 250 | N=C(N)Nc1nc2c(s1)CCN(C(=O)c1ccc(NC(=O)c3ccccc3-c3ccccc3)cc1)c1ccccc1-2 |
| 116 to 117 | Cc1cccc(-c2nc(CCOc3ccc(/C=C/CO)cc3)c(C)o2)c1 |
| 108 to 109 | CC[C@@H](c1ccccc1)N(Cc1ccc(C(=O)O)cc1)S(=O)(=O)c1ccc(F)c(F)c1 |
| 120 to 123 | CCCCc1nc(Cl)c(C=O)n1Cc1ccc(-c2nc3ccccn3c2C(=O)O)cc1 |
| 65 to 66 | CCCCCCCCCCCCc1ccccc1C(SCC(=O)O)C(=O)O (stereo not given) |
| 211 | O=C(CC1CCOCC1)Nc1cccc2nc(N[C@@H]3CCc4ccccc43)ccc12 |
| 108 to 111 | COC(=O)C(C)(C)S(=O)(=O)N1CCC(c2ccc(-c3cccc(OCCO)n3)c(C)c2)CC1 |
| 95 to 97 | CC1(C(=O)Cn2cncn2)COCOC1 |
| 130 to 131 | Cn1ccnc1COc1cc(Oc2ccc(S(C)(=O)=O)cc2)cc2cc(C3=NCC(CC(N)=O)S3)[nH]c12 (stereo not given) |
| 186 to 188 | O=C(O)/C=C/C=C(c1ccc(F)cc1)c1ccc(F)cc1 |
| 130 to 131 | CC(C)(C)c1cc(-c2nn(CCCBr)c(=O)o2)cc(C(C)(C)C)c1O |
| 114 to 116 | O=C(CCOc1ccc(Cl)cc1)NCCCn1ccnc1 |
| 101 to 104 | CC1(C)N=C(SCc2cccc3cccnc23)N=C1SCc1cccc2cccnc12 |
| 200 to 201 | Cc1oc(-c2ccc(C(F)(F)F)cc2)cc1C(=O)Nc1cccc(CCC(=O)O)c1 |
| 45 to 46 | CCCCCCCCCCOc1cc(OCCCCCCc2cccc(OCc3ccccc3)c2OCc2ccccc2)cc(C(=O)OC)c1 |
